Reference: patent US20210238139A1, “MODULATORS OF TRYPTOPHAN CATABOLISM” (E-Therapeutics PLC, priority 2018, published 2021)
Read-outs that look alike come from different tables or passages of the source.

Test system: SK-OV-3 cells
Assay: Effect of compounds on tryptophan catabolism in SK-OV-3 cell line (inhibition of kynurenine production, LC-MS/MS)
Type: cell-based
Conditions: SK-OV-3 cell line, 24 h incubation, kynurenine in supernatant by LC-MS/MS, read-out: IC50 Ranges (ic50 values for inhibition of Kynurenine production)
Method in brief: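 Kynurenine in supernatants quantified by LC-MS/MS after 24 h compound exposure (37 °C; top 30 μM, eight 3-fold steps, duplicate) in DMEM F-12 containing 6 mg/mL L-tryptophan. Cells pre-plated overnight in McCoy's 5A with 10% FBS. Viability checked in parallel by ATP luminescence.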

SMILES: COc1cc(NC(=O)N(Cc2ccc(C)o2)C2CCCC2)ccc1-n1cc(CO)nn1 [Compound 323, 1-cyclopentyl-[4-[4-(hydroxymethyl)triazol-1-yl]-3-methoxy-phenyl]-1-[(5-methyl-2-furyl)methyl]urea]
- IC50 (Homo sapiens, SK-OV-3, 24 h): 100 to 500 nM

SMILES: Cc1ccc(CN(C(=O)NCc2ccc(C#N)cc2)C2CCCC2)o1 [Compound 96, 3-[(4-cyanophenyl)methyl]-1-cyclopentyl-1-[(5-methyl-2-furyl)methyl]urea]
- IC50 (Homo sapiens, SK-OV-3, 24 h): > 5000 nM

SMILES: Cc1ccc(N(Cc2cccs2)C(=O)NC2CCCCC2)cc1 [Compound 201, 3-cyclohexyl-1-(p-tolyl)-1-(2-thienylmethyl) urea]
- IC50 (Homo sapiens, SK-OV-3, 24 h): 1000 to 5000 nM

SMILES: O=C(Nc1ccccc1)N(Cc1ccccn1)C1CCCCC1 [Compound 32, 1-cyclohexyl-3-phenyl-1-(2-pyridylmethyl)urea]
- IC50 (Homo sapiens, SK-OV-3, 24 h): > 5000 nM

SMILES: O=C(Nc1cccc(F)c1)N(Cc1cccs1)C1CCCC1 [Compound 55, 1-cyclopentyl-3-(3-fluorophenyl)-1-(2-thienylmethyl)urea]
- IC50 (Homo sapiens, SK-OV-3, 24 h): 500 to 1000 nM

SMILES: CC(NC(=O)Nc1ccccc1)c1ccc(F)cc1 (racemic) [Compound 197, 1-[1-(4-fluorophenyl)ethyl]-3-phenyl-urea]
- IC50 (Homo sapiens, SK-OV-3, 24 h): 1000 to 5000 nM

SMILES: Cc1ccc(CN(C(=O)Nc2ccc3c(c2)CNC3=O)C2CCCC2)o1 [Compound 307]
- IC50 (Homo sapiens, SK-OV-3, 24 h): > 5000 nM

SMILES: CCc1ccc(CN(C(=O)Nc2ccc(C#N)cc2)C2CCCC2)o1 [Compound 295, 3-(4-cyanophenyl)-1-cyclopentyl-1-[(5-ethyl-2-furyl)methyl]urea]
- IC50 (Homo sapiens, SK-OV-3, 24 h): < 100 nM

SMILES: C#Cc1ccc(NC(=O)N(Cc2ccnc(C(F)(F)F)c2)C2CCC2)cc1 [Compound 153, 1-cyclobutyl-3-(4-ethynylphenyl)-1-[[2-(trifluoromethyl)-4-pyridyl]methyl]urea]
- IC50 (Homo sapiens, SK-OV-3, 24 h): < 100 nM

SMILES: Cc1ccc(CN(C(=O)Nc2ccncc2)C2CCCC2)o1 [Compound 81, 1-cyclopentyl-1-[(5-methyl-2-furyl)methyl]-3-(4-pyridyl)urea]
- IC50 (Homo sapiens, SK-OV-3, 24 h): 500 to 1000 nM

SMILES: Cc1ccc(CN(C(=O)Nc2ccc(Cl)cc2)C2CC(F)C2)o1 (stereo not shown) [Compound 222, 3-(4-chlorophenyl)-1-(3-fluorocyclobutyl)-1-[(5-methyl-2-furyl)methyl]urea]
- IC50 (Homo sapiens, SK-OV-3, 24 h): 100 to 500 nM

SMILES: Cc1ccc(CN(C(=O)Nc2ccc(Cl)cc2)C2CCCC2(F)F)o1 (stereo not shown) [Compound 206, 3-(4-chlorophenyl)-1-(2,2-difluorocyclopentyl)-1-[(5-methyl-2-furyl)methyl]urea]
- IC50 (Homo sapiens, SK-OV-3, 24 h): < 100 nM

SMILES: Cc1ccc(CN(C(=O)Nc2ccc(C#CCO)cc2)C2CCC2)o1 [Compound 297, 1-cyclobutyl-3-[4-(3-hydroxyprop-1-ynyl)phenyl]-1-[(5-methyl-2-furyl)methyl]urea]
- IC50 (Homo sapiens, SK-OV-3, 24 h): < 100 nM

SMILES: N#Cc1ccc(NC(=O)N(Cc2nc3c(s2)COCC3)C2CCCC2)cc1 [Compound 310, 3-(4-cyanophenyl)-1-cyclopentyl-1-(6,7-dihydro-4H-pyrano[4,3-d]thiazol-2-ylmethyl)urea]
- IC50 (Homo sapiens, SK-OV-3, 24 h): 1000 to 5000 nM

SMILES: N#Cc1ccc(NC(=O)N(Cc2cccc3ncsc23)C2CCC2)cc1 [Compound 263, 1-(1,3-benzothiazol-7-ylmethyl)-3-(4-cyanophenyl)-1-cyclobutyl-urea]
- IC50 (Homo sapiens, SK-OV-3, 24 h): 100 to 500 nM

SMILES: N#Cc1ccc(CN(C(=O)Nc2ccccc2)C2CCCC2)o1 [Compound 60, 1-[(5-cyano-2-furyl)methyl]-1-cyclopentyl-3-phenyl-urea]
- IC50 (Homo sapiens, SK-OV-3, 24 h): 500 to 1000 nM

SMILES: N#Cc1cc(CN(C(=O)Nc2ccc(Cl)cc2)C2CCCC2)ccn1 [Compound 114, 3-(4-chlorophenyl)-1-[(2-cyano-4-pyridyl)methyl]-1-cyclopentyl-urea]
- IC50 (Homo sapiens, SK-OV-3, 24 h): 100 to 500 nM

SMILES: N#Cc1ccc(NC(=O)N(Cc2cc3ncccc3o2)C2CCC2)cc1 [Compound 249, 3-(4-cyanophenyl)-1-cyclobutyl-1-(furo[3,2-b]pyridin-2-ylmethyl)urea]
- IC50 (Homo sapiens, SK-OV-3, 24 h): > 5000 nM

SMILES: O=C(Nc1ccc(F)cc1)N(Cc1ncccn1)C1CCCC1 [Compound 72, 1-cyclopentyl-3-(4-fluorophenyl)-1-(pyrimidin-2-ylmethyl)urea]
- IC50 (Homo sapiens, SK-OV-3, 24 h): > 5000 nM

SMILES: Cc1cn(-c2ccc(NC(=O)N(Cc3ccc(C)o3)C3CCCC3)cc2)nn1 [Compound 320, 1-cyclopentyl-1-[(5-methyl-2-furyl)methyl]-3-[4-(4-methyltriazol-1-yl)phenyl]urea]
- IC50 (Homo sapiens, SK-OV-3, 24 h): 100 to 500 nM

SMILES: O=C(Nc1ccccc1)N(Cc1cccs1)C1CCCC1 [Compound 195, 1-cyclopentyl-3-phenyl-1-(2-thienylmethyl)urea]
- IC50: 100 to 500 nM

SMILES: Cc1ccc(CN(C(=O)Nc2ccc3c(c2)CN(C)C3=O)C2CCCC2)o1 [Compound 312, 1-cyclopentyl-1-[(5-methyl-2-furyl)methyl]-3-(2-methyl-1-oxo-isoindolin-5-yl)urea]
- IC50 (Homo sapiens, SK-OV-3, 24 h): 1000 to 5000 nM

SMILES: Cc1ccc(CN(C(=O)Nc2ccc(Cl)cc2)C2CCC(C#N)C2)o1 (stereo not shown) [Compound 254, 3-(4-chlorophenyl)-1-(3-cyanocyclopentyl)-1-[(5-methyl-2-furyl)methyl]urea]
- IC50 (Homo sapiens, SK-OV-3, 24 h): 500 to 1000 nM

SMILES: O=C(NCCc1ccccc1)N(Cc1ccco1)C1CCCC1 [Compound 29, 1-cyclopentyl-1-(2-furylmethyl)-3-(2-phenylethyl)urea]
- IC50 (Homo sapiens, SK-OV-3, 24 h): > 5000 nM

SMILES: N#Cc1cccc(CN(C(=O)Nc2ccc(Cl)cc2)C2CCCC2)n1 [Compound 157, 3-(4-chlorophenyl)-1-[(6-cyano-2-pyridyl)methyl]-1-cyclopentyl-urea]
- IC50 (Homo sapiens, SK-OV-3, 24 h): 100 to 500 nM

SMILES: Cc1ccc(CN(C(=O)Nc2ncc(Br)s2)C2CCCC2)o1 [Compound 161, 3-(5-bromothiazol-2-yl)-1-cyclopentyl-1-[(5-methyl-2-furyl)methyl]urea]
- IC50 (Homo sapiens, SK-OV-3, 24 h): < 100 nM

SMILES: Cc1ncc(CN(C(=O)Nc2ccccc2)C2CCCC2)o1 [Compound 143, 1-cyclopentyl-1-[(2-methyloxazol-5-yl)methyl]-3-phenyl-urea]
- IC50 (Homo sapiens, SK-OV-3, 24 h): 1000 to 5000 nM

SMILES: Cc1ccc(CN(C(=O)Nc2ccc(-n3cc(CO)nn3)cc2)C2CCCC2)o1 [Compound 164, 1-cyclopentyl-3-[4-[4-(hydroxymethyl)triazol-1-yl]phenyl]-1-[(5-methyl-2-furyl)methyl]urea]
- IC50 (Homo sapiens, SK-OV-3, 24 h): < 100 nM

SMILES: COc1ccc(CN(C(=O)Nc2ccc(F)c(F)c2)C2CCCC2)cc1C [Compound 47, 1-cyclopentyl-3-(3,4-difluorophenyl)-1-[(4-methoxy-3-methyl-phenyl)methyl]urea]
- IC50 (Homo sapiens, SK-OV-3, 24 h): 100 to 500 nM

SMILES: Cc1ccc(CN(C(=O)Nc2ccccc2)C2CCN(C(=O)OC(C)(C)C)CC2)o1 [Compound 136, tert-butyl 4-[(5-methyl-2-furyl)methyl-(phenylcarbamoyl)amino]piperidine-1-carboxylate]
- IC50 (Homo sapiens, SK-OV-3, 24 h): > 5000 nM

SMILES: N#Cc1ccc(NC(=O)N(Cc2ccn3ccnc3n2)C2CCC2)cc1 [Compound 274, 3-(4-cyanophenyl)-1-cyclobutyl-1-(imidazo[1,2-a]pyrimidin-7-ylmethyl)urea]
- IC50 (Homo sapiens, SK-OV-3, 24 h): 1000 to 5000 nM

SMILES: COc1ccc(CN(C(=O)NCCc2ccccc2)C2CCCC2)cc1C [Compound 46, 1-cyclopentyl-1-[(4-methoxy-3-methyl-phenyl)methyl]-3-(2-phenylethyl)urea]
- IC50 (Homo sapiens, SK-OV-3, 24 h): 1000 to 5000 nM

SMILES: CC(c1cccc(C#N)c1)N(C(=O)Nc1ccc(Cl)cc1)C1CCC1 (racemic) [Compound 192, 3-(4-chlorophenyl)-1-[1-(3-cyanophenyl)ethyl]-1-cyclobutyl-urea]
- IC50 (Homo sapiens, SK-OV-3, 24 h): < 100 nM

SMILES: CC1(CN(C(=O)Nc2ccccc2)C2CCCC2)CCN(C(=O)OC(C)(C)C)CC1 [Compound 77, tert-butyl 4-[[cyclopentyl(phenylcarbamoyl)amino]methyl]-4-methyl-piperidine-1-carboxylate]
- IC50 (Homo sapiens, SK-OV-3, 24 h): 100 to 500 nM
